Experimental data published in ChEMBL document CHEMBL6114989, “D-morphinan analogs with favorable pharmacokinetic profiles as dual-acting antidepressants” (Eur J Med Chem, 2025).
The source made the active and inactive calls. The rule behind the calls is not given here.

How the values were obtained:
[1] = MRT (0 to t) in ICR mouse at 10 mg/kg, po measured upto 24 hrs by LC-MS/MS analysis; format: ADME, organism-based; details: in vivo
[2] = Metabolic stability in mouse liver microsome assessed as hepatic extraction ratio in presence of NADPH measured upto 60 mins by LC-MS/MS analysis; format: ADME; details: liver microsomes, read-out: ERH
[3] = AUC (0 to t) in ICR mouse at 10 mg/kg, po measured upto 24 hrs by LC-MS/MS analysis; format: ADME, organism-based; details: in vivo
[4] = Metabolic stability in mouse liver microsome assessed as hepatic clearance in presence of NADPH measured upto 60 mins by LC-MS/MS analysis; format: ADME; details: liver microsomes
[5] = biological target: T1, Sodium-dependent dopamine transporter (Homo sapiens, UniProt Q01959); assay: Inhibition of DAT (unknown origin) at 10 uM relative to control
T1 sequence (Q01959 whole entry): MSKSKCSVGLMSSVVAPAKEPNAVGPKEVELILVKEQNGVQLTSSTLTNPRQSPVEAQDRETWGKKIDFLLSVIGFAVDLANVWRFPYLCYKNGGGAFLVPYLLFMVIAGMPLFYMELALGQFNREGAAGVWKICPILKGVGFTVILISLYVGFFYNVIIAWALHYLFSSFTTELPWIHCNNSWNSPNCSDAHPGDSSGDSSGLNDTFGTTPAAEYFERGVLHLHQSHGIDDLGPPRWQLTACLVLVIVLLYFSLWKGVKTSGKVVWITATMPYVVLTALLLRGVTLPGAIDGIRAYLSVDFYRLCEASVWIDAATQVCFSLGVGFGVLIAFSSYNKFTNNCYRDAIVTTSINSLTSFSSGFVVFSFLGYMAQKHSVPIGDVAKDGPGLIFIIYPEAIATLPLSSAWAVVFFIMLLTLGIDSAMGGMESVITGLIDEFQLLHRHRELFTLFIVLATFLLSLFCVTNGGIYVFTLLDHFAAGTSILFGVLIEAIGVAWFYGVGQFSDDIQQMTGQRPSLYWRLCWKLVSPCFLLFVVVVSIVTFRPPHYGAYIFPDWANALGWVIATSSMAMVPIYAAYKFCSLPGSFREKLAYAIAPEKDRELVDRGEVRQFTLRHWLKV

[6] = AUC (0 to t) in ICR mouse at 10 mg/kg, ip measured upto 24 hrs by LC-MS/MS analysis; format: ADME, organism-based; details: in vivo
[7] = Cmax in ICR mouse at 10 mg/kg, po measured upto 24 hrs by LC-MS/MS analysis; format: ADME, organism-based; details: in vivo
[8] = biological target: T2, Sodium-dependent noradrenaline transporter (Homo sapiens, UniProt P23975); assay: Inhibition of NET (unknown origin) at 10 uM relative to control
T2 sequence (P23975 whole entry): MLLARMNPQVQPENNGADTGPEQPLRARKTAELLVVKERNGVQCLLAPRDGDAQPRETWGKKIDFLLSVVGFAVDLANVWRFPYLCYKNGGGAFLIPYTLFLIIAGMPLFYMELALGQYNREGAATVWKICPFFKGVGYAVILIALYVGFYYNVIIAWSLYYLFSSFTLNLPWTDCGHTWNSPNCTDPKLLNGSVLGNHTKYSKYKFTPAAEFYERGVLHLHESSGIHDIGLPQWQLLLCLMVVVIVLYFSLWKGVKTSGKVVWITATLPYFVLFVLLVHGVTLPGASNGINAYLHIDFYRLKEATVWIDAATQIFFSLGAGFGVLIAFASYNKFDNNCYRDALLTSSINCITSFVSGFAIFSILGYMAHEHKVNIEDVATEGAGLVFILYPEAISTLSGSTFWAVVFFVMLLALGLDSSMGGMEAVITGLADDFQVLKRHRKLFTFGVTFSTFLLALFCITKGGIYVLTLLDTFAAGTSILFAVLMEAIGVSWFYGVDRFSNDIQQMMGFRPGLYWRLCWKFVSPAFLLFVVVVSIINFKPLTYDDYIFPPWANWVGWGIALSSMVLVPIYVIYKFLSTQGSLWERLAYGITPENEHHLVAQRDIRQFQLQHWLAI

[9] = Metabolic stability in mouse liver microsome assessed as half life in presence of NADPH measured upto 60 mins by LC-MS/MS analysis; format: ADME; details: liver microsomes
[10] = Tmax in ICR mouse at 10 mg/kg, po measured upto 24 hrs by LC-MS/MS analysis; format: ADME, organism-based; details: in vivo
[11] = Tmax in ICR mouse at 10 mg/kg, ip measured upto 24 hrs by LC-MS/MS analysis; format: ADME, organism-based; details: in vivo
[12] = Cmax in ICR mouse at 10 mg/kg, ip measured upto 24 hrs by LC-MS/MS analysis; format: ADME, organism-based; details: in vivo
[13] = biological target: Sodium-dependent serotonin transporter (Homo sapiens, UniProt P31645)
Sodium-dependent serotonin transporter, sequence (P31645 whole entry): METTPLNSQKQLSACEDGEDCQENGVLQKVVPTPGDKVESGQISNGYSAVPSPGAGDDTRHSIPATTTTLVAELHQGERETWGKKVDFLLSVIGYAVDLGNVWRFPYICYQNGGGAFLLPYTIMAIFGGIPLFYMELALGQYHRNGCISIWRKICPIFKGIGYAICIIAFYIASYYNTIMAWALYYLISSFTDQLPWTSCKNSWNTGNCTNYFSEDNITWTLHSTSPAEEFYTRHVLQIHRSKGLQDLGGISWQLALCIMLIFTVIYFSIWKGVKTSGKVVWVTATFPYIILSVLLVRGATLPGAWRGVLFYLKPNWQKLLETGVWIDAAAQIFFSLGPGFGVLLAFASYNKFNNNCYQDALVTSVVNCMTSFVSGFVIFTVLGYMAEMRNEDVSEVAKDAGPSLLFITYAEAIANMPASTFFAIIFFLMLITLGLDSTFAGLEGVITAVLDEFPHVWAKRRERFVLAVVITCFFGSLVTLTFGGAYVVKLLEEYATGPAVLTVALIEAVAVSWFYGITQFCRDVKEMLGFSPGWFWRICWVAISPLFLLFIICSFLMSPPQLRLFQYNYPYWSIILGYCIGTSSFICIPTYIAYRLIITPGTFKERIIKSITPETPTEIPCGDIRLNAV

[14] = biological target: T3, Glutamate NMDA receptor; GRIN1/GRIN2A (Homo sapiens, UniProt Q05586+Q12879); assay: Inhibition of human GluN1/GluN2A NMDA receptor expressed in HEK293 cells assessed as reduction in glutamate induced current at -70 mV holding potential by whole-cell patch clamp technique; format: cell-based
T3 sequence (Q12879 whole entry, other chains not shown): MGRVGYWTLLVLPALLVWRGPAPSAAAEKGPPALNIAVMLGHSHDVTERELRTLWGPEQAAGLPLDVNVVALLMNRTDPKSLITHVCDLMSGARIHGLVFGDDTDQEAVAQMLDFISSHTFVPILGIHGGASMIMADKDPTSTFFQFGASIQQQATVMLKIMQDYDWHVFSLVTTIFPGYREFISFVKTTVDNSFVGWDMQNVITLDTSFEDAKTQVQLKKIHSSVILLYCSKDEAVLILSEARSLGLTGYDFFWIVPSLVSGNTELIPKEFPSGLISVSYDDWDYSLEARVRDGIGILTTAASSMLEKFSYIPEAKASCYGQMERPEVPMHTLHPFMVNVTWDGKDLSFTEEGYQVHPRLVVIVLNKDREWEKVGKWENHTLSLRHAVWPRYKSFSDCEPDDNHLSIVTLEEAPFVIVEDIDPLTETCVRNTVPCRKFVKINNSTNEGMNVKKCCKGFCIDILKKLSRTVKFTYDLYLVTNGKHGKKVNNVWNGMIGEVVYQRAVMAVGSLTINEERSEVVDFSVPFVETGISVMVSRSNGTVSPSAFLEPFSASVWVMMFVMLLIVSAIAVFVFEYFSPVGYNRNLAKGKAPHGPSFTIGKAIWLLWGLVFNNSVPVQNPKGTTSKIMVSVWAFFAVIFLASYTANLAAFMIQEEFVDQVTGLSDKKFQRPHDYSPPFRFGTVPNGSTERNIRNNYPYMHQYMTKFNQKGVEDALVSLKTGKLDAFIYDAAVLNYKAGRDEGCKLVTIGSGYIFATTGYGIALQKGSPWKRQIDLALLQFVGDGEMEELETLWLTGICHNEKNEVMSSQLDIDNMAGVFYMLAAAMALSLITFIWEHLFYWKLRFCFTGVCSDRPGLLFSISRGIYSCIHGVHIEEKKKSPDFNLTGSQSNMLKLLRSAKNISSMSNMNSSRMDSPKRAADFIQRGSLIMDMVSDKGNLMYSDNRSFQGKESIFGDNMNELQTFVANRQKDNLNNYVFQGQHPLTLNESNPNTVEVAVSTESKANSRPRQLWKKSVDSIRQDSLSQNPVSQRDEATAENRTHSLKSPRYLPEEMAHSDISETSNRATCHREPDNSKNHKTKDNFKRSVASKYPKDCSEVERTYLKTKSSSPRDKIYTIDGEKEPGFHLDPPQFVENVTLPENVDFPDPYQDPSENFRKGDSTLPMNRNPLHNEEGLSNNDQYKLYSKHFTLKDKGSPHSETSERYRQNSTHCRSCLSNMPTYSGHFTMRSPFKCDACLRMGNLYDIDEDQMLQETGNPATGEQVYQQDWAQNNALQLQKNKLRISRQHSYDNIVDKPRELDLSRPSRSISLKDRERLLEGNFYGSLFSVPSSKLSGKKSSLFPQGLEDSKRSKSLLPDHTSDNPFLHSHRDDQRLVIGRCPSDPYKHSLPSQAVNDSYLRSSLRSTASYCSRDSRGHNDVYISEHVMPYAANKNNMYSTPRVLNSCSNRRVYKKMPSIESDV

[15] = AUC (0 to infinity) in ICR mouse at 10 mg/kg, ip measured upto 24 hrs by LC-MS/MS analysis; format: ADME, organism-based; details: in vivo
[16] = Half life in ICR mouse at 10 mg/kg, po measured upto 24 hrs by LC-MS/MS analysis; format: ADME, organism-based; details: in vivo
[17] = Metabolic stability in mouse liver microsome assessed as intrinsic clearance in presence of NADPH measured upto 60 mins by LC-MS/MS analysis; format: ADME; details: liver microsomes, read-out: CLH
[18] = system: Mus musculus; assay: Antidepressant activity in ip dosed C57BL/6J mouse assessed as reduction in of immobility time by forced swim test; format: functional, organism-based; details: dose 10-20 mg/kg
[19] = Half life in ICR mouse at 10 mg/kg, ip measured upto 24 hrs by LC-MS/MS analysis; format: ADME, organism-based; details: in vivo
[20] = AUC (0 to infinity) in ICR mouse at 10 mg/kg, po measured upto 24 hrs by LC-MS/MS analysis; format: ADME, organism-based; details: in vivo
[21] = biological target: T4, Mu-type opioid receptor (Homo sapiens, UniProt P35372); assay: Agonist activity at human mu-opioid receptor stably expressed in CHO cells assessed as inhibition of forskolin-induced cAMP accumulation at 30 uM preincubated with compound for 10 mins followed by forskolin induction and measured after 30 mins by LANCE Ultra cAMP assay relative to control; format: functional, cell-based; details: time 40.0 min
T4 sequence (P35372 whole entry): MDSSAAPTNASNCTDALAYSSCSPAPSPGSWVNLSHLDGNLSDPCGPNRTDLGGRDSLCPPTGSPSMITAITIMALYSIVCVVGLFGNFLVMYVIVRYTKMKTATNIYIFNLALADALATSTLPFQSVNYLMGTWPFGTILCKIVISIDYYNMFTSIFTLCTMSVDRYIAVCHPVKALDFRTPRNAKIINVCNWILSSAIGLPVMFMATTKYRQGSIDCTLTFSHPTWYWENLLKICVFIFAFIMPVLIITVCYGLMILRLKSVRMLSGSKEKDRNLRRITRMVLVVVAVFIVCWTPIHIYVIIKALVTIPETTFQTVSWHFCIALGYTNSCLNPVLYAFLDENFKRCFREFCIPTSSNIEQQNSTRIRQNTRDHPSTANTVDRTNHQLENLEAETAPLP

[22] = MRT (0 to infinity) in ICR mouse at 10 mg/kg, ip measured upto 24 hrs by LC-MS/MS analysis; format: ADME, organism-based; details: in vivo
[23] = biological target: T4, Mu-type opioid receptor; assay: Agonist activity at human mu-opioid receptor stably expressed in CHO cells assessed as inhibition of forskolin-induced cAMP accumulation preincubated with compound for 10 mins followed by forskolin induction and measured after 30 mins by LANCE Ultra cAMP assay; format: functional, cell-based
[24] = biological target: T2, Sodium-dependent noradrenaline transporter; assay: Inhibition of human NET
[25] = biological target: T1, Sodium-dependent dopamine transporter; assay: Inhibition of DAT (unknown origin)
[26] = Hepatotoxicity against human HepG2 cells assessed as reduction in cell viability at 50 uM incubated for 48 hrs by celltiter-luminescence assay; format: toxicity, cell-based; details: hepg2, 48 h
[27] = biological target: Voltage-gated inwardly rectifying potassium channel KCNH2 (Homo sapiens, UniProt Q12809); assay: Inhibition of hERG expressed in CHO cells assessed as inhibition of channel current at holding potential of -80 mV by automated patch clamp method; format: toxicity, cell-based
Voltage-gated inwardly rectifying potassium channel KCNH2, sequence (Q12809 whole entry): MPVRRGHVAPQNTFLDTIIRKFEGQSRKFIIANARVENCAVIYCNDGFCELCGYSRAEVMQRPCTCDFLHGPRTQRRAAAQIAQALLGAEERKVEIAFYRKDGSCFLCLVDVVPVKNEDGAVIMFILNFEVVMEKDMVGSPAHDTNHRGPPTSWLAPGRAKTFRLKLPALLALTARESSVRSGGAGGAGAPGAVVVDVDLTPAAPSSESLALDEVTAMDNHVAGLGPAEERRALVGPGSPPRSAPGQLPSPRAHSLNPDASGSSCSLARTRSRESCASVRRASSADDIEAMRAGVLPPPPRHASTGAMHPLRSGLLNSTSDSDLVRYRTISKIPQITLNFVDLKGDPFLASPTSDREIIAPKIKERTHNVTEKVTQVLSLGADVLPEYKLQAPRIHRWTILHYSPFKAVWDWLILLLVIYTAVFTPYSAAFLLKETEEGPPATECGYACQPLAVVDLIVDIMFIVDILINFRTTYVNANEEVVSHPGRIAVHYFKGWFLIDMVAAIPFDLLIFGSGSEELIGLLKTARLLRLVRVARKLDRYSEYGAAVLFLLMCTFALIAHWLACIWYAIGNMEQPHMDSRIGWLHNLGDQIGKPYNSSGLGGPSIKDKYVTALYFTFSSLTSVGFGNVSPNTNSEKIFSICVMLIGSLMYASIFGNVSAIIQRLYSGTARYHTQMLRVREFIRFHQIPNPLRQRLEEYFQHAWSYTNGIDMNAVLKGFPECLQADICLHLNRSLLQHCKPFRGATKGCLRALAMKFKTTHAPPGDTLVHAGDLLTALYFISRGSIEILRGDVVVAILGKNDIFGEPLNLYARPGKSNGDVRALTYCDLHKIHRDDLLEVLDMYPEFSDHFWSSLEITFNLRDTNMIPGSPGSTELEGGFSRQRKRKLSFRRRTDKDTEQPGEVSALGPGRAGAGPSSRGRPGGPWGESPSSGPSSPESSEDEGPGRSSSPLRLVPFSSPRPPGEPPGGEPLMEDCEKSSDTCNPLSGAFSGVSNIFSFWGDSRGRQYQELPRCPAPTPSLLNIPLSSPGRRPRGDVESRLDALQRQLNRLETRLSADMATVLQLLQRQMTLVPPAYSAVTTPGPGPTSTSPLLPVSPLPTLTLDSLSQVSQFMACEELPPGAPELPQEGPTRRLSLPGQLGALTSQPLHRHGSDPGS

[28] = system: HEK293; assay: Nephrotoxicity against human HEK293 cells assessed as reduction in cell viability at 200 uM incubated for 48 hrs by celltiter-luminescence assay; format: toxicity, cell-based; details: hek293, 48 h
[29] = system: Mus musculus; assay: Antidepressant activity in C57BL/6J mouse assessed as reduction in of immobility time at 10 to 30 mg/kg, po by forced swim test; format: functional, organism-based; details: dose 10-30 mg/kg
[30] = Metabolic stability in human liver microsome assessed as hepatic clearance in presence of NADPH measured upto 60 mins by LC-MS/MS analysis; format: ADME; details: liver microsomes
[31] = Metabolic stability in human liver microsome assessed as intrinsic clearance in presence of NADPH measured upto 60 mins by LC-MS/MS analysis; format: ADME; details: liver microsomes, read-out: CLH
[32] = Metabolic stability in human liver microsome assessed as half life in presence of NADPH measured upto 60 mins by LC-MS/MS analysis; format: ADME; details: liver microsomes
[33] = Nephrotoxicity against human HEK293 cells assessed as inhibition of cell proliferation incubated for 48 hrs by celltiter-luminescence assay; format: toxicity, cell-based
[34] = biological target: T3, Glutamate NMDA receptor; GRIN1/GRIN2A; assay: Antagonist activity at human GluN1/GluN2A NMDA receptor expressed in HEK293 cells assessed as reduction in glutamate induced current at -70 mV holding potential by whole-cell patch clamp technique; format: cell-based
[35] = Hepatotoxicity against human HepG2 cells assessed as inhibition of cell proliferation incubated for 48 hrs by celltiter-luminescence assay; format: toxicity, cell-based
[36] = system: Mus musculus; assay: Antidepressant activity in C57BL/6J mouse assessed as reduction in of immobility time at 10 to 30 mg/kg, po in presence of quinidine by forced swim test; format: functional, organism-based; details: dose 10-30 mg/kg
[37] = system: Mus musculus; assay: Antidepressant activity in C57BL/6J mouse assessed as reduction in of immobility time at 20 mg/kg, ip by forced swim test; format: functional, organism-based
[38] = Selectivity index, ratio of IC50 for inhibition of human GluN1/GluN2A NMDA receptor expressed in HEK293 cells to IC50 for inhibition of SERT (unknown origin); format: cell-based
[39] = Hepatotoxicity against human HepG2 cells assessed as reduction in cell viability at 100 to 200 uM incubated for 48 hrs by celltiter-luminescence assay; format: toxicity, cell-based; details: hepg2, 48 h, dose 100-200 µM
[40] = Metabolic stability in human liver microsome assessed as hepatic extraction ratio in presence of NADPH measured upto 60 mins by LC-MS/MS analysis; format: ADME; details: liver microsomes, read-out: ERH
[41] = system: HEK293; assay: Nephrotoxicity against human HEK293 cells assessed as reduction in cell viability at 100 to 200 uM incubated for 48 hrs by celltiter-luminescence assay; format: toxicity, cell-based; details: hek293, 48 h, dose 100-200 µM

Compound: CC(=O)Nc1ccc2c(c1)[C@]13CCCC[C@@H]1[C@H](C2)N(C)CC3
- MRT last at 24 h [1]: 1.04 h
- hepatic extraction ratio at 1 h [2]: 0.281
- AUC(0-t) at 24 h [3]: 1220 ng·h/mL
- CLhep predicted [4]: 25.3 mL/min/kg
- inhibition [5]: 19%
- AUC(0-t) at 24 h [6]: 1080 ng·h/mL
- Cmax [7]: 1040 ng/mL
- inhibition [8]: inactive
- half-life [9]: 4.45 h
- Tmax [10]: 0.19 h
- Tmax [11]: 4.8 min
- Cmax [12]: 1680 ng/mL
- IC50 [13]: 435 µM
- IC50 [14]: 2.17 µM
- AUC(0-inf) [15]: 1080 ng·h/mL
- half-life [16]: 0.86 h
- CLint scaled [17]: 35.1 mL/min/kg
- Activity [18]: Dose-dependent-effect
- half-life [19]: 0.74 h
- AUC(0-inf) [20]: 1220 ng·h/mL
- inhibition [21]: 36%
- MRT inf [22]: 0.68 h

Compound: CN1CC[C@@]23CCCC[C@@H]2[C@@H]1Cc1ccc(C(N)=O)cc13
- inhibition [5]: inactive
- inhibition [8]: 12%
- IC50 [13]: 123 µM
- IC50 [14]: 3.01 µM
- EC50 [23]: 25 µM

Compound: c1ccc2cc([C@]34CNC[C@H]3C4)ccc2c1 [CENTANAFADINE]
- IC50 [24]: 0.01 µM
- IC50 [25]: 0.06 µM
- IC50 [13]: 90 µM
- Activity [21]: inactive

Compound: COc1ccc2c(c1)[C@]13CCCC[C@@H]1[C@H](C2)N(C)CC3 [DEXTROMETHORPHAN]
- MRT last at 24 h [1]: 5.1 h
- Activity [26]: Non-toxic
- IC50 [27]: 13 µM
- Activity [28]: Toxic
- AUC(0-t) at 24 h [3]: 198 ng·h/mL
- CLhep predicted [4]: 72 mL/min/kg
- inhibition [5]: inactive
- Activity [29]: inactive
- CLhep predicted [30]: 10.5 mL/min/kg
- CLint scaled [31]: 20.9 mL/min/kg
- AUC(0-t) at 24 h [6]: 817 ng·h/mL
- half-life [32]: 2.32 h
- Cmax [7]: 57.7 ng/mL
- half-life [9]: 0.433 h
- Tmax [10]: 0.83 h
- Tmax [11]: 8.4 min
- Cmax [12]: 720 ng/mL
- IC50 at 48 h [33]: > 200 µM
- IC50 [34]: 1.04 µM
- AUC(0-inf) [15]: 820 ng·h/mL
- IC50 at 48 h [35]: > 200 µM
- half-life [16]: 3.17 h
- Activity [36]: Active
- CLint scaled [17]: 360 mL/min/kg
- half-life [19]: 1.93 h
- AUC(0-inf) [20]: 207 ng·h/mL
- inhibition [21]: 5%
- MRT inf [22]: 1.33 h

Compound: CN1CC[C@@]23CCCC[C@@H]2[C@@H]1Cc1ccc(N)cc13
- MRT last at 24 h [1]: 2.45 h
- IC50 [27]: 22.1 µM
- hepatic extraction ratio at 1 h [2]: 0.423
- Activity [37]: Active
- AUC(0-t) at 24 h [3]: 2710 ng·h/mL
- CLhep predicted [4]: 38.9 mL/min/kg
- inhibition [5]: 11%
- CLhep predicted [30]: 11 mL/min/kg
- CLint scaled [31]: 23.2 mL/min/kg
- Ratio IC50 [38]: 3.35
- AUC(0-t) at 24 h [6]: 2520 ng·h/mL
- half-life [32]: 2.08 h
- Cmax [7]: 1380 ng/mL
- Activity [39]: Non-toxic
- inhibition [8]: 4%
- half-life [9]: 2.28 h
- hepatic extraction ratio at 1 h [40]: 0.525
- Tmax [10]: 0.42 h
- Tmax [11]: 4.8 min
- Cmax [12]: 1360 ng/mL
- Activity [41]: Non-toxic
- IC50 [13]: 1040 µM
- IC50 at 48 h [33]: > 200 µM
- IC50 [34]: 3.5 µM
- AUC(0-inf) [15]: 2520 ng·h/mL
- IC50 at 48 h [35]: > 200 µM
- half-life [16]: 3.24 h
- CLint scaled [17]: 68.4 mL/min/kg
- Activity [18]: Dose-dependent-effect
- half-life [19]: 2.92 h
- AUC(0-inf) [20]: 2720 ng·h/mL
- inhibition [21]: 11%
- MRT inf [22]: 2.64 h
